Measurements as given in ChEMBL document CHEMBL3870327, “Thioxylated cyclosporin A for studying protein-drug interactions” (Bioorg Med Chem Lett, 2016).
Active and inactive are the calls of the source. The rule behind the calls is not given here. *1 amine or outer side, *2 acyl side, *3 side chain or, on linkers, in order; H or OH if unused. Where a SMILES comes first, the peptide text is derived from it. [ ]: non-standard residue; d: D form. X1 = CC(C)C[C@@H](C(=S)N[C@H](C(=O)[*:2])C(C)C)N(C)[*:1]; AlaΨ(CSNH)dAla = C[C@H](N[*:1])C(=S)N[C@H](C)C(=O)[*:2]; MeBmt = C/C=C/C[C@@H](C)[C@@H](O)[C@H](NC)C(=O)O; NMeL = CN[C@@H](CC(C)C)C(=O)O; NMeV = CN[C@H](C(=O)O)C(C)C; Abu = CC[C@H](N)C(=O)O; Sar = CNCC(=O)O

Legend:
[1] = biological target: T1, Peptidyl-prolyl cis-trans isomerase A (Homo sapiens, UniProt P62937); test: Binding affinity to recombinant His-tagged Cyp18 (unknown origin) expressed in Escherichia coli BL21(DE3) assessed as inhibition of recombinant human His6-tagged calcineurin alpha phosphatase actvity using RII phosphopeptide as substrate by measuring amount of free phosphate at 10 uM preincubated for 20 mins followed by substrate addition measured after 30 mins in presence of human calmodulin by malachite green dye-based spectrophotometry relative to control
Target sequence in this assay (P62937 whole entry, looked up): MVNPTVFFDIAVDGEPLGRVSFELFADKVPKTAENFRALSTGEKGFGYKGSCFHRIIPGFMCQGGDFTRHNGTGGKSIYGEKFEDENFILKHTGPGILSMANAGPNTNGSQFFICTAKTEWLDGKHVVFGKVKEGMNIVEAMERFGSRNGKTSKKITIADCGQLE

[2] = biological target: T1, Peptidyl-prolyl cis-trans isomerase A; test: Binding affinity to recombinant His-tagged Cyp18 (unknown origin) expressed in Escherichia coli BL21(DE3) assessed as blue shift by UV absorbance method
Target sequence in this assay (P62937 whole entry, looked up): as above

[3] = biological target: T1, Peptidyl-prolyl cis-trans isomerase A; test: Inhibition of recombinant His-tagged Cyp18 (unknown origin) expressed in Escherichia coli BL21(DE3) up to 1000 nM
Target sequence in this assay (P62937 whole entry, looked up): as above

[4] = biological target: T1, Peptidyl-prolyl cis-trans isomerase A; test: Binding affinity to recombinant His-tagged Cyp18 (unknown origin) expressed in Escherichia coli BL21(DE3) by fluorescence analysis
Target sequence in this assay (P62937 whole entry, looked up): as above

[5] = biological target: T1, Peptidyl-prolyl cis-trans isomerase A; test: Binding affinity to Cyp18 (unknown origin) assessed as association rate constant of fast phase by stopped flow method
Target sequence in this assay (P62937 whole entry, looked up): as above

[6] = biological target: T1, Peptidyl-prolyl cis-trans isomerase A; test: Binding affinity to Cyp18 (unknown origin) by fluorescence assay
Target sequence in this assay (P62937 whole entry): as the sequence (P62937 whole entry, looked up) above

[7] = biological target: T1, Peptidyl-prolyl cis-trans isomerase A; test: Binding affinity to recombinant His-tagged Cyp18 (unknown origin) expressed in Escherichia coli BL21(DE3) assessed as dissociation rate constant in presence of 20-fold excess of cyclosporin A by fluorescence assay
Target sequence in this assay (P62937 whole entry, looked up): as above

Activity [1]	Activity [2]	inhibition [3]	Activity [4]	K [5]	Kd [6]	K [7]	SMILES
Active	Active	Active	Active	–	–	–	C/C=C/C[C@@H](C)[C@@H](O)[C@H]1C(=O)N[C@@H](CC)C(=O)N(C)CC(=O)N(C)[C@@H](CC(C)C)C(=S)N[C@@H](C(C)C)C(=O)N(C)[C@@H](CC(C)C)C(=O)N[C@@H](C)C(=O)N[C@H](C)C(=O)N(C)[C@@H](CC(C)C)C(=O)N(C)[C@@H](CC(C)C)C(=O)N(C)[C@@H](C(C)C)C(=O)N1C
Active	Active	Active	Active	8.34 ×10⁶ /M/s	8.2 nM	6.32 ×10⁻² /s	C/C=C/C[C@@H](C)[C@@H](O)[C@H]1C(=O)N[C@@H](CC)C(=O)N(C)CC(=O)N(C)[C@@H](CC(C)C)C(=O)N[C@@H](C(C)C)C(=O)N(C)[C@@H](CC(C)C)C(=O)N[C@@H](C)C(=S)N[C@H](C)C(=O)N(C)[C@@H](CC(C)C)C(=O)N(C)[C@@H](CC(C)C)C(=O)N(C)[C@@H](C(C)C)C(=O)N1C (HELM PEPTIDE1{[Abu].[Sar].[meL].V.[meL].[C[C@H](N[*:1])C(=S)N[C@H](C)C(=O)[*:2]].[meL].[meL].[meV].[C/C=C/C[C@@H](C)[C@@H](O)[C@@H](C(=O)[*:2])N(C)[*:1]]}$PEPTIDE1,PEPTIDE1,1:R1-10:R2$$$V2.0)
Active	Active	Active	Active	–	–	–	C/C=C/C[C@@H](C)[C@@H](O)[C@H]1C(=O)N[C@@H](CC)C(=O)N(C)CC(=O)N(C)[C@@H](CC(C)C)C(=S)N[C@@H](C(C)C)C(=O)N(C)[C@@H](CC(C)C)C(=O)N[C@@H](C)C(=S)N[C@H](C)C(=O)N(C)[C@@H](CC(C)C)C(=O)N(C)[C@@H](CC(C)C)C(=O)N(C)[C@@H](C(C)C)C(=O)N1C (cyclo([Abu][Sar][X1][NMeL][AlaΨ(CSNH)dAla][NMeL][NMeL][NMeV][MeBmt]))
